# Measured values taken from patent US9284312B2, “N-methyl tetrahydroquinoline M1 receptor positive allosteric modulators” (Merck Sharp & Dohme Corp., priority 2011, dated 2016).
# Molecular target: T1, acetylcholine muscarinic M1 receptor (Homo sapiens, UniProt P11229)
# T1 construct: expressed in transfected cells; host or cells: CHOnfat (CHO cells, Geneticin-selected) expressing hM1
# T1 sequence (P11229 1-460): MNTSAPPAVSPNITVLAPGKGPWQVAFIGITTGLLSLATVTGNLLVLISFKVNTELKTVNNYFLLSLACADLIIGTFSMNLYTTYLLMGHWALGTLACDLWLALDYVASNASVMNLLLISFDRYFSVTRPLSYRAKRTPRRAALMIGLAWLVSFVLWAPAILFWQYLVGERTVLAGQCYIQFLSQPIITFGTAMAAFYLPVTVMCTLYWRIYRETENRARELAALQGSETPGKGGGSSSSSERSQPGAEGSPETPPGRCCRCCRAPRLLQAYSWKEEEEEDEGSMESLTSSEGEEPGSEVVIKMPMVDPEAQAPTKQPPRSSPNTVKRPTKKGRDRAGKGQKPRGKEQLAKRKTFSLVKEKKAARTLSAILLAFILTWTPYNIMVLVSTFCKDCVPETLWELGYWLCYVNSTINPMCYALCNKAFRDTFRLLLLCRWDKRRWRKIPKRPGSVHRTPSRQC
# Assay: muscarinic FLIPR assay: intracellular calcium in CHOnfat/hM1 cells with EC20 acetylcholine (positive allosteric modulation)
# Assay type: cell-based
# Details: not given
# Method: The assay studies the effect of one or several concentrations of test compounds on basal or acetylcholine-stimulated Ca^2+ levels using FLIPR.
# Compounds are prepared and subjected to a preincubation period of 4 min. Thereafter, a single EC20 concentration of acetylcholine is added to each well (3 nM final). The intracellular Ca^2+ level of each sample is measured and compared to an acetylcholine control to determine any modulatory activity.
# Cells: CHOnfat/hM1, hM2, hM3 or hM4 cells are plated 24 hr before the assay at a density of 18,000 cells/well (100 μL) in a 384 well plate. CHOnfat/hM1 and CHOnfat/hM3 Growth Medium: 90% DMEM (Hi Glucose); 10% HI FBS; 2 mM L-glutamine; 0.1 mM NEAA; Pen-Strep; and 1 mg/ml Geneticin, are added. For M2Gqi5CHOnfat and M4Gqi5CHOnfat cells, an additional 600 ug/ml hygromycin is added.
# Equipment: 384 well plate, 120 μL addition plate; 96-well Whatman 2 ml Uniplate Incubator, 37° C., 5% CO2; Skatron EMBLA-384 Plate Washer; Multimek Pipetting System; Genesis Freedom 200 System; Mosquito System; Temo Nanoliter Pipetting System; and FLIPR^384 Fluorometric Imaging Plate Reader System are used.
# Buffers. Assay Buffer: Hanks Balanced Salt Solution, with 20 mM Hepes, 2.5 mM Probenecid (Sigma P-8761) first dissolved in 1 N NaOH, 1% Bovine Serum Albumin (Sigma A-9647). Dye Loading Buffer: Assay Buffer plus 1% Fetal Bovine Serum and Fluo-4AM/Pluronic Acid Mixture. 2 mM Fluo-4AM ester stock in DMSO (Molecular Probes F-14202) Concentration of 2 μM in buffer for a final concentration of […] in Assay. 20% Pluronic Acid Solution stock, with concentration of 0.04% in Buffer, 0.02% in Assay.
# 65 μL of 2 mM Fluo-4AM are mixed with 130 μL of 20% Pluronic Acid. The resulting solution and 650 μL FBS is added to the assay buffer for a total volume of 65 mL. Positive Controls: 4-Br-A23187: 10 mM in DMSO; final concentration 10 μM. Acetylcholine: 10 mM in water, working stock at both 20 μM and 30 μM in assay buffer, final concentration of 10 μM. This is used to check the maximum stimulation of the CHOK1/hM1 cells. 20 μM (2×) acetylcholine is added in the preincubation part of the assay, and the 30 μM (3×) stock is added in the second part. (EC20)Acetylcholine: 10 mM in water, working stock of 9 nM (3×), and final concentration in assay is 3 nM. This is used after the preincubation with test compounds. Addition of the EC20 Acetylcholine to each well with a test compound will ascertain any modulator activity. 24 wells contain 3 nM Acetylcholine alone as a control.
# Determining Activity of Putative Compounds:
# Screening Plate: Compounds are titrated in 96-well plates (columns 2-11), 100% DMSO, started at a concentration of 15 mM (150× stock concentration), and 3-fold serial dilutions using Genesis Freedom200 System. Four 96-well plates are combined into a 384-well plate using Mosquito Nanoliter Pipetting System by transferring 1 μl of serial diluted compounds to each well, and 1 mM acetylcholine (100× stock concentration) were added as a control. Using Temo, 49 μl assay buffer is added to each well of the 384-well plate right before assay.
# In a 96-well Whatman 2 ml Uniplate, 9 nM Acetylcholine (3×) is pipetted into wells corresponding to the screening compounds, and into control wells. The 30 μM acetylcholine control (3×) is added into control wells, and the 3× agonist plate is transferred into a 384 well plate.
# Cells are washed three times with 100 μL of buffer, leaving 30 μL of buffer in each well. Using Multimek, 30 μL of Dye Loading Buffer is added into each well and incubated at 37° C., 5% CO2 for up to one hr.
# After 60 min, the cells are washed three times with 100 μL of buffer, leaving 30 μL of buffer in each well. The cell plate, screening plate, and agonist addition plates are placed on the platform in the FLIPR and the door closed. A signal test to check background fluorescence and basal fluorescence signal is performed. Laser intensity is adjusted if necessary. […]
row,SMILES,EC50 [nM]
1,"CN(C)C(=O)Oc1ccc(Cc2cc3c(=O)n([C@H]4CCCC[C@@H]4O)cnc3c3c2C=CCN3C)cc1 [Example 8, 4-({3-[(1S,2S)-2-Hydroxycyclohexyl]-10-methyl-4-oxo-3,4,9,10-tetrahydropyrido[3,2-h]quinazolin-6-yl}methyl)phenyl dimethylcarbamate]",25

# Same assay, conditions: CHOnfat/hM1 cells, FLIPR Ca2+, 4 min preincubation, then EC20 acetylcholine (3 nM final); read-out: IP Value (inflection point)
row,SMILES,EC50 [nM]
1,"COc1cc(Cc2cc3c(=O)n([C@H]4CCCC[C@@H]4O)cnc3c3c2C=CCN3C)ccn1 [Example 9, 3-[(1S,2S)-2-Hydroxycyclohexyl]-6-[(2-methoxypyridin-4-yl)methyl]-10-methyl-9,10-dihydropyrido[3,2-h]quinazolin-4(3H)-one]",5.2
2,"COc1ccc(Cc2cc3c(=O)n([C@H]4CCCC[C@@H]4O)cnc3c3c2C=CCN3C)cn1 [Example 4, 3-[(1S,2S)-2-Hydroxycyclohexyl]-6-[(6-methoxypyridin-3-yl)methyl]-10-methyl-9,10-dihydropyrido[3,2-h]quinazolin-4(3H)-one]",14
3,"CN1CC=Cc2c(Cc3ccc(-c4cnn(C)c4)nc3)cc3c(=O)n([C@H]4CCCC[C@@H]4O)cnc3c21 [Example 6, 3-[(1S,2S)-2-Hydroxycyclohexyl]-10-methyl-6-{[6-(1-methyl-1H-pyrazol-4-yl)pyridin-3-yl]methyl}-9,10-dihydropyrido[3,2-h]quinazolin-4(3H)-one]",2.6

# The remaining lines, values ahead:
row,EC50 [nM],SMILES
1,21,"CN1CC=Cc2c(Cc3cccnc3)cc3c(=O)n([C@H]4CCCC[C@@H]4O)cnc3c21 [Example 5, 3-[(1S,2S)-2-Hydroxycyclohexyl]-10-methyl-6-(pyridine-3-ylmethyl)-9,10-dihydropyrido[3,2-h]quinazolin-4(3H)-one]"
2,4.3,"CN1CC=Cc2c(Cc3ccc(Cl)nc3)cc3c(=O)n([C@H]4CCOC[C@@H]4O)cnc3c21 [Example 2, 6-[(6-Chloropyridin-3-yl)methyl]-3-[(3R,4S)-3-hydroxytetrahydro-2H-pyran-4-yl]-10-methyl-9,10-dihydropyrido[3,2-h]quinazolin-4(3H)-one]"
3,4.2,"CSc1ccc(Cc2cc3c(=O)n([C@H]4CCCC[C@@H]4O)cnc3c3c2C=CCN3C)cn1 [Example 3, 3-[(1S,2S)-2-Hydroxycyclohexyl]-10-methyl-6-{[-(methylthio)-pyridin-3-yl]methyl}-9,10-dihydropyrido[3,2-h]quinazolin-4(3H)-one]"
4,3,"CN1CC=Cc2c(Cc3ccc(Cl)nc3)cc3c(=O)n([C@H]4CCCC[C@@H]4O)cnc3c21 [Example 1, 6-[(6-Chloropyridin-3-yl)methyl]-3-[(1S,2S)-2-hydroxycyclohexyl]-10-methyl-9,10-dihydropyrido[3,2-h]quinazolin-4(3H)-one]"
5,2.6,"CN1CC=Cc2c(Cc3ccc(O)cc3)cc3c(=O)n([C@H]4CCCC[C@@H]4O)cnc3c21 [Example 7, 6-(4-Hydroxybenzyl)-3-[(1S,2S)-2-hydroxycyclohexyl]-10-methyl-9,10-dihydropyrido[3,2-h]quinazolin-4(3H)-one]"

# Same assay, conditions: column head 'H Pot.' of the untitled table after Table 1; no unit or method printed; read-out: H Pot.
row,SMILES,EC50 [nM]
1,CCN1CC=Cc2c(Cc3ccc(Cl)nc3)cc3c(=O)n([C@H]4CCCC[C@@H]4O)cnc3c21 [Example 46],263
